Assays:
Format in all cases: functional
EKVX = assay: Anticancer activity against human EKVX cells assessed as cell growth promotion at 10^-5 M after 48 hrs by SRB assay relative to control
TK-10 = assay: Anticancer activity against human TK10 cells assessed as cell growth promotion at 10^-5 M after 48 hrs by SRB assay relative to control
SNB-75 = assay: Anticancer activity against human SNB75 cells assessed as cell growth promotion at 10^-5 M after 48 hrs by SRB assay relative to control
UACC-62 = assay: Anticancer activity against human UACC62 cells assessed as cell growth promotion at 10^-5 M after 48 hrs by SRB assay relative to control
CAKI-1 = assay: Anticancer activity against human Caki1 cells assessed as cell growth promotion at 10^-5 M after 48 hrs by SRB assay relative to control
Malme-3M = assay: Anticancer activity against human MALME-3M cells assessed as cell growth promotion at 10^-5 M after 48 hrs by SRB assay relative to control
PC-3 = assay: Anticancer activity against human PC3 cells assessed as cell growth promotion at 10^-5 M after 48 hrs by SRB assay relative to control
786-0 = assay: Anticancer activity against human 786-0 cells assessed as cell growth promotion at 10^-5 M after 48 hrs by SRB assay relative to control
A498 = assay: Anticancer activity against human A498 cells assessed as cell growth promotion at 10^-5 M after 48 hrs by SRB assay relative to control
LOX IMVI = assay: Anticancer activity against human LOXIMVI cells assessed as cell growth promotion at 10^-5 M after 48 hrs by SRB assay relative to control
NCI-H322M = assay: Anticancer activity against human NCI-H322M cells assessed as cell growth promotion at 10^-5 M after 48 hrs by SRB assay relative to control
MDA-MB-231 = assay: Anticancer activity against human MDA-MB-231 cells assessed as cell growth promotion at 10^-5 M after 48 hrs by SRB assay relative to control
OVCAR-4 = assay: Anticancer activity against human OVCAR4 cells assessed as cell growth promotion at 10^-5 M after 48 hrs by SRB assay relative to control
NCI-H522 = assay: Anticancer activity against human NCI-H522 cells assessed as cell growth promotion at 10^-5 M after 48 hrs by SRB assay relative to control
CCRF-CEM = assay: Anticancer activity against human CCRF-CEM cells assessed as cell growth promotion at 10^-5 M after 48 hrs by SRB assay relative to control
NCI-H460 = assay: Anticancer activity against human NCI-H460 cells assessed as cell growth promotion at 10^-5 M after 48 hrs by SRB assay relative to control
BT-549 = assay: Anticancer activity against human BT549 cells assessed as cell growth promotion at 10^-5 M after 48 hrs by SRB assay relative to control
SK-MEL-2 = assay: Anticancer activity against human SK-MEL-2 cells assessed as cell growth promotion at 10^-5 M after 48 hrs by SRB assay relative to control
OVCAR-3 = assay: Anticancer activity against human OVCAR3 cells assessed as cell growth promotion at 10^-5 M after 48 hrs by SRB assay relative to control
OVCAR-5 = assay: Anticancer activity against human OVCAR5 cells assessed as cell growth promotion at 10^-5 M after 48 hrs by SRB assay relative to control
A549 = assay: Anticancer activity against human A549 cells assessed as cell growth promotion at 10^-5 M after 48 hrs by SRB assay relative to control

Structure (SMILES) | Activity (EKVX) | Activity (TK-10) | Activity (SNB-75) | Activity (UACC-62) | Activity (CAKI-1) | Activity (Malme-3M) | Activity (PC-3) | Activity (786-0) | Activity (A498) | Activity (LOX IMVI) | Activity (NCI-H322M) | Activity (MDA-MB-231) | Activity (OVCAR-4) | Activity (CCRF-CEM) | Activity (NCI-H460) | Activity (BT-549) | Activity (SK-MEL-2) | Activity (OVCAR-3) | Activity (OVCAR-5) | Activity (A549) | other results
O=C(O)c1ccc(-n2c(-c3ccco3)nc3ccccc3c2=O)cc1 | 98.39% | 94.73% | 89.2% | 84.67% | 102.24% | 102.96% | 86.25% | 105.17% | 106.88% | 98.82% | 97.61% | 83.73% | 100.6% | 87.86% | 95.38% | 100.59% | 93.19% | 105.38% | 98.22% | 104.77% | Activity (NCI-H522): 109.67%
Oc1ccccc1/C=C/c1nc2ccccc2nc1SCc1nc2ccccc2[nH]1 | 60.4% | 43.48% | – | 58.04% | 56.68% | 83.19% | 63.9% | 89.92% | 92.56% | 78.17% | 80.01% | 53.69% | 25.22% | 41.14% | 80.34% | – | – | 81.53% | 86.09% | 77.16% | –
O=C(Nc1ccccc1C(=O)Nc1ccc(/C=C/c2ccc(Cl)cc2)cc1)c1ccccc1 | 86.68% | 123% | 84.55% | 79.67% | 90.6% | 91.75% | 65.2% | 75.14% | – | 74.93% | 89.27% | 81.11% | 85.63% | 52.41% | 72.92% | 76.41% | 90.64% | 86.93% | 123% | 70.02% | Activity (NCI-H522): 70.95%
COc1ccc(OC)c(/C=C/c2nc3ccccc3nc2SCc2nc3ccccc3[nH]2)c1 | 81.9% | 56.15% | – | 80.62% | 83.86% | 108% | 113% | 90.52% | 95.89% | 93.9% | 94.87% | 96.56% | – | 81.59% | 94.48% | – | – | 107% | 101% | 90.64% | –
O=c1c2ccccc2nc(-c2ccco2)n1O | 109.13% | 98.03% | 86.97% | 92.42% | 102.81% | 122.97% | 91.05% | 104.23% | 97.65% | 107.97% | 97.18% | 93.48% | 114.55% | 98.16% | 108.52% | 103.7% | 103.59% | 114.53% | 100.49% | 113.82% | –
NS(=O)(=O)c1ccc(NC(=O)c2ccccc2NC(=O)c2ccco2)cc1 | 97.23% | 102% | 87.71% | 107% | 100% | 118.8% | 118% | 108% | -23% | 101.6% | 119.5% | 102% | 98% | 98.87% | 115.5% | 111% | 115.3% | 108% | 99.82% | 106.3% | Activity (NCI-H522): 90.78%
O=C(Nc1ccccc1C(=O)Nc1ccc(/C=C/C=C/c2ccccc2)cc1)c1ccccc1 | 87.7% | 114% | 82.74% | 84.87% | 83.56% | 78.99% | 75.75% | 84.31% | – | 84.87% | 81.13% | 87.48% | – | 53.89% | 94.36% | 86.19% | 96.46% | 88.79% | 99.95% | 91.49% | Activity (NCI-H522): 70.1%
COc1cc(/C=C/c2ccc(NC(=O)c3ccccc3NC(=O)c3ccccc3)cc2)ccc1O | 100% | 97.64% | 85.88% | 98.83% | 95.9% | 101% | 94.13% | 95.86% | – | 92% | 91.92% | 96.74% | – | 79.93% | 107% | 95.53% | 104% | 107% | 116% | 99.78% | Activity (NCI-H522): 99.45%
Oc1ccc(/C=C/c2nc3ccccc3nc2SCc2nc3ccccc3[nH]2)cc1 | 92.68% | 107% | 93.68% | 96.99% | 76.71% | 86.88% | 96.98% | 94.31% | 88.72% | 95.29% | – | 95.18% | 107% | 77.99% | 95.51% | – | – | 102% | 102% | 85.66% | –
CN(C)c1ccc(/C=C/c2nc3ccccc3nc2SCc2nc3ccccc3[nH]2)cc1 | 92.96% | 113% | – | 84.34% | 107% | 102% | 119% | 90.32% | 88.48% | 103% | 97.59% | 89.23% | – | 81.79% | 104% | – | – | 107% | 102% | 97.05% | –
N#Cc1ccc(/C=C/c2nc3ccccc3nc2SCc2nc3ccccc3[nH]2)cc1 | 99.04% | 86.49% | – | 100% | 111% | 90.35% | 103% | 90.69% | 105% | 100% | 120% | 97.02% | – | 93.78% | 104% | – | – | 110% | 104% | 93.12% | –
C(=C\c1nc2ccccc2nc1SCc1nc2ccccc2[nH]1)/c1ccccc1 | 22.23% | 44.74% | – | 61.37% | 77.88% | 63.63% | – | 76.68% | 71.11% | 56.83% | 86.4% | 77.23% | 2.71% | 89.58% | 70.22% | – | – | 65.02% | 95.41% | 64.03% | –

From ChEMBL document CHEMBL1781959, “Synthesis and in vitro antitumor activity of substituted quinazoline and quinoxaline derivatives: search for anticancer agent” (Eur J Med Chem, 2011)
